Experimental data from patent US20110086898A1, “PYRAZOLOOXAZOLE COMPOUND” (Eisai R&D Management Co., Ltd., priority 2009, published 2011).

Legend:
IBS patients = details: Gut 2004, 53:958-964; cited from earlier work
ethanol withdrawal rats = details: Brain Research, 605:25-32 (1993); cited from earlier work
[1] = system: stress-related reduction in food intake; details: Brain Research, 823: 221-225 (1999); cited from earlier work
intracerebral amyloid-β = details: PNAS 104: 10673-10678 (2007); cited from earlier work
[2] = system: ischemic and excitotoxic encephalopathy; details: Brain Research, 656: 405-408 (1994); cited from earlier work
human CRFR1 = target: T1, human CRFR1 (Homo sapiens, UniProt P34998); assay: CRFR1 binding test (SPA competition with 125I-CRF); details: membrane fraction of human CRFR1-expressing HEK293 cells, read-out: CRF1 receptor binding capacity IC50
T1 construct: The full-length CRFR1 gene was obtained by PCR by using human brain cDNA library; expressed in transfected cells
T1 sequence (P34998 24-415): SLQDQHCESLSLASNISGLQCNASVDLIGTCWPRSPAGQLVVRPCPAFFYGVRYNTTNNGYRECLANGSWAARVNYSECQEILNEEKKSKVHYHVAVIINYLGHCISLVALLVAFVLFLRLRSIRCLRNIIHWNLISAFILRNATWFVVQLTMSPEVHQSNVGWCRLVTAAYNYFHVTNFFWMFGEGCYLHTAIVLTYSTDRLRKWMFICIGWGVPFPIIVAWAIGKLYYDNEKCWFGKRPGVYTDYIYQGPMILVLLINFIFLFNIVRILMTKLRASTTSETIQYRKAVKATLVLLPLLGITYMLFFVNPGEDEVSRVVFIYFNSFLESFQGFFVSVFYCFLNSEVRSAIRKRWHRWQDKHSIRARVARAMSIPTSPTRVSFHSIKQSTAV
Experimental: (1) Preparation of CRFR1-Expressing Cells
The membrane fraction of human CRFR1 high-expressing cells was used as the material for a CRFR1 binding experiment. The CRFR1-expressing cells were prepared in the following manner. The full-length CRFR1 gene was obtained by PCR by using human brain cDNA library (QuickClone™, Clontech). The obtained DNA fragment was inserted into a cloning vector and the base sequence was confirmed cDNA having the proper base sequence was linked to an expression vector (pcDNA3.1™, Invitrogen). The CRFR1 expression vector was genetically introduced into HEK293 cell, and the resistant cells which proliferated in culture medium containing G418 (1 mg/ml) were cloned by the limiting dilution method. Out of the cloned cells, cells having high binding capacity between the membrane fraction per unit protein and sauvagine were selected according to the following binding experiment, and the selected cells were used for the experiments.
(2) Preparation of Membrane Fraction
The cloned cells obtained in (1) were collected and suspended in ice-cooled membrane buffer (50 mM Tris-HCl, 5 mM MgCl2, 2 mM EGTA, 1 mM DTT, protease inhibitor cocktail (COMPLETE™, Roche Diagnostics) pH 7.3), and then the cells were disrupted with a Polytron (KINEMATICA) while cooling on ice (level 5, 10 seconds, 2-5 times, ice-cooling) and then centrifuged (2,000 rpm, 5 minutes, 4° C.), followed by collecting the supernatant. Membrane buffer was added to the precipitate, and the mixture was subjected to Polytron treatment (same conditions as mentioned above) and centrifuged (conditions as mentioned above), and the obtained supernatant was collected and combined with the previous supernatant. This was centrifuged (13,000 rpm (18,000×g), 30 minutes, 4° C.) to prepare cell membranes. The precipitated cell membranes were suspended in membrane buffer and disrupted with a Polytron (level 5, 10 seconds, 3-5 times, ice-cooling) to prepare a dispersed suspension. The protein assay was carried out.
The following method (1) or (2) was earned out for use as the cell membrane action.
(1) The above dispersed suspension was diluted with membrane buffer containing 0.1% BSA to a protein concentration of 200 μg/ml, for use as the cell membrane fraction.
(2) The above dispersed suspension was freeze-preserved, and if necessary, thawed, re-dispersed and diluted for use as the cell membrane fraction.
A binding competition experiment with CRF was conducted by the SPA (GE Healthcare) method using a 96-well plate. Five jug of the cell membrane fraction protein, 1 mg of SPA beads and […] ^125I-CRF (Perkin Elmer) were allowed to stand at mom temperature for at least two hours in the presence of a test compound, and the radioactivity of each well after centrifugation (1,200 rpm (260×g), five minutes, room temperature) was measured with a TopCount (registered trademark; Perkin Elmer).
(4) Calculation of Binding Capacity
The radioactivity with addition of a 4,000-fold excess of non-radioactive sauvagine as the nonspecific binding was subtracted from each value, and the resulting value was expressed as a percentage (% of control), with 100% as the radioactivity without addition of the test compound (control).

male Balb/c mice = assay: Light/dark box test in mice (anxiolytic effect); assay type: in vivo; details: for anxiolytic effect in the light/dark box test in mice: dose 30 mg/kg, oral administration; for Effective Dose: minimum dose significantly prolonging time spent in light box vs vehicle, oral, one hour prior to test, Balb/c mice
Experimental: Evaluation of Anxiolytic Effect in Light/Dark Box Test in Mice
The light/dark box test in mice was carried out according to a modified method of Belzung C., Misslin R., and Vogel E. et al. (Reference; Behavioural effects of the benzodiazepine receptor partial agonist RO16-6028 in mice, Psychopharmacology, 97, 388-391, 1989). The test apparatus used in this test was a light/dark box including a covered black acrylic box (dark box; 15×10×20 cm), a white acrylic box with top opened (light box; 15×20×20 cm) and a black acrylic tunnel (10×7×4.5 cm) that connects the dark box and the light box and enables a mouse to freely move back and forth between the dark box and light box. In this test apparatus, however, a transparent acrylic plate was used for the front side (20×20 cm) and back side (20×20 cm) of the light box to allow observation of the behavior. After setting illumination so that the light intensity of the floor surface of the light box became 150 Lux, 5-week-old male Balb/c mice (purchased from Nihon Charles River) were introduced into the dark box and the test was started. In the test; the tested compound was suspended in 5% dimethyl sulfoxide, 5% Cremopor EL and 90% physiological saline and orally administered to the test animals one hour prior to the start of the test.
(2) Calculation of Anxiolytic Effect:
The time spent in the light box was measured as an index of the anxiolytic effect, with “spend in the light box” defined as the state in which all limbs of the mice were on the floor of the light box. […] The statistical significance between the vehicle-treated group and the test compound-treated groups was analyzed by one-way layout analysis of variance followed by Dunnett multiple comparison when multiple doses were set for the same test, and by the Mann-Whitney U test when only one dose was set.

rat = details: Brain Research, 893:29-35 (2001); cited from earlier work
Tg2576 transgenic mice = details: Journal of Neurochemistry, 108: 165-175 (2009); cited from earlier work
limbic system seizure = details: Brain Research, 770:89-95; cited from earlier work

Which “abdominal pain and anxiety” value (IBS patients) does the source give for α-helical CRF (9-41) here?
The value was “reduces”.

What about the colon intestinal hyperkinesis (IBS patients) of the same compound?
The colon intestinal hyperkinesis was “inhibits”.

What about the “anxiety behavior in ethanol withdrawal rats” value (ethanol withdrawal rats) of the same compound?
The value was “inhibits”.

What about the “stress-related reduction in food intake” value [1] of the same compound?
Its value is “inhibit”.

What about the “stress-related increase in intracerebral amyloid-β” value (intracerebral amyloid-β) of the same compound?
Its value is “suppresses”.

What about the “ischemic and excitotoxic encephalopathy” value [2] of the same compound?
The value was “inhibits”.

With `CCc1nn2c(-c3c(OC)cc(COC)cc3OC)c(C)oc2c1N(CC1CC1)CC1CC1` [Example 7, N,N-bis(cyclopropylmethyl)-3-[2,6-dimethoxy-4-(methoxymethyl)phenyl]-6-ethyl-2-methylpyrazolo[5,1-b][1,3]oxazole-7-amine] as the compound, how does the IC50 (human CRFR1) read?
Its IC50 is 21 nM.

For `CCOCc1cc(OC)c(-c2c(C)oc3c(N(CC4CC4)CC4CCOC4)c(CC)nn23)c(OC)c1` (stereo not drawn) [Example 9, N-(cyclopropylmethyl)-3-[4-(ethoxymethyl)-2,6-dimethoxyphenyl]-6-ethyl-2-methyl-N-(tetrahydrofuran-3-ylmethyl)pyrazolo[5,1-b][1,3]oxazole-7-amine], which IC50 (human CRFR1) is on record?
The IC50 was 44 nM.

Which IC50 (human CRFR1) does the source give for `COCc1cc(OC)c(-c2c(C)oc3c(N(CC(C)C)CC4CCOC4)c(C)nn23)c(OC)c1` (stereo not drawn) [Example 12, 3-[2,6-dimethoxy-4-(methoxymethyl)phenyl]-N-isobutyl-2,6-dimethyl-N-(tetrahydrofuran-3-ylmethyl)pyrazolo[5,1-b][1,3]oxazole-7-amine] here?
The IC50 was 79 nM.

For `COCc1cc(OC)c(-c2c(C)oc3c(N(CC(C)C)CC4CCOCC4)c(C)nn23)c(OC)c1` [Example 11, 3-[2,6-dimethoxy-4-(methoxymethyl)phenyl]-N-isobutyl-2,6-dimethyl-N-(tetrahydro-2H-pyran-4-ylmethyl)pyrazolo[5,1-b][1,3]oxazole-7-amine], which IC50 (human CRFR1) is on record?
The IC50 was 50 nM.

With `CCc1nn2c(-c3c(OC)cc(COC)cc3OC)coc2c1N(CC1CCOCC1)CC1CC1` [Example 3, N-(cyclopropylmethyl)-3-[2,6-dimethoxy-4-(methoxymethyl)phenyl]-6-ethyl-N-(tetrahydro-2H-pyran-4-ylmethyl)pyrazolo[5,1-b][1,3]oxazole-7-amine] as the compound, how does the IC50 (human CRFR1) read?
Its IC50 is 100 nM.

For `CCN(c1nc(C)cc(N2CC=C(c3cccc(F)c3)CC2)n1)c1ccc(C(C)C)cc1SC` [CRA1000], which “stress-related reduction in food intake” value [1] is on record?
The value was “inhibit”.

Which IC50 (human CRFR1) does the source give for `CCc1nn2c(-c3c(OC)cc(COC)cc3OC)c(C)oc2c1N(CC1CCOCC1)CC1CC1` [Example 5, N-(cyclopropylmethyl)-3-[2,6-dimethoxy-4-(methoxymethyl)phenyl]-6-ethyl-2-methyl-N-(tetrahydro-2H-pyran-4-ylmethyl)pyrazolo[5,1-b][1,3]oxazole-7-amine] here?
Its IC50 is 32 nM.

What about the “anxiolytic effect in the light/dark box test in mice” value (male Balb/c mice) of the same compound?
The value was “statistically significant effects”.

And the “Effective Dose” value (male Balb/c mice)?
The value was 30 mg/kg.

For `CCOCc1cc(OC)c(-c2c(C)oc3c(N(CC4CCOCC4)CC4CC4)c(C)nn23)c(OC)c1` [Example 13, N-(cyclopropylmethyl)-3-[4-(ethoxymethyl)-2,6-dimethoxyphenyl]-2,6-dimethyl-N-(tetrahydro-2H-pyran-4-ylmethyl)pyrazolo[5,1-b][1,3]oxazole-7-amine], which IC50 (human CRFR1) is on record?
The IC50 was 61 nM.

Which IC50 (human CRFR1) does the source give for `CCc1nn2c(-c3c(OC)cc(COC)cc3OC)c(C)oc2c1N(CC1CC1)C1CCOCC1` [Example 16, N-(cyclopropylmethyl)-3-[2,6-dimethoxy-4-(methoxymethyl)phenyl]-6-ethyl-2-methyl-N-(tetrahydro-2H-pyran-4-yl)pyrazolo[5,1-b][1,3]oxazole-7-amine] here?
The IC50 was 102 nM.

For `CCc1nn2c(-c3c(OC)cc(COC)cc3OC)c(C)oc2c1N(CC1CC1)CC1COCOC1` [Example 14, N-(cyclopropylmethyl)-3-[2,6-dimethoxy-4-(methoxymethyl)phenyl]-N-(1,3-dioxan-5-ylmethyl)-6-ethyl-2-methylpyrazolo[5,1-b][1,3]oxazole-7-amine], which IC50 (human CRFR1) is on record?
Its IC50 is 121 nM.

With `CCCN(CC1CC1)c1nc(C)nc(Nc2c(Cl)cc(Cl)cc2Cl)c1Cl` [NBI-27914] as the compound, how does the “water avoidance stress-related rat catharsis” value (rat) read?
The value was “inhibits”.

What about the “increased levels of Aβ and Aβ plaque deposition induced by stress” value (Tg2576 transgenic mice) of the same compound?
The value was “inhibits”.

What about the “limbic system seizure (convulsion and epilepsy induced by CRF administration)” value (limbic system seizure) of the same compound?
The value was “inhibits”.

With `CCc1nn2c(-c3c(OC)cc(COC)cc3OC)c(C)oc2c1N(CC1CC1)CC1CCOC1` (stereo not drawn) [Example 8, N-(cyclopropylmethyl)-3-[2,6-dimethoxy-4-(methoxymethyl)phenyl]-6-ethyl-2-methyl-N-(tetrahydrofuran-3-ylmethyl)pyrazolo[5,1-b][1,3]oxazole-7-amine] as the compound, how does the IC50 (human CRFR1) read?
Its IC50 is 77 nM.

With `CCc1nn2c(-c3c(OC)cc(COC)cc3OC)c(C)oc2c1N(CC(C)C)CC1CCOCC1` [Example 6, 3-[2,6-dimethoxy-4-(methoxymethyl)phenyl]-6-ethyl-N-isobutyl-2-methyl-N-(tetrahydro-2H-pyran-4-ylmethyl)pyrazolo[5,1-b][1,3]oxazole-7-amine] as the compound, how does the IC50 (human CRFR1) read?
Its IC50 is 43 nM.

For `CCCCN(c1c(CC)nn2c(-c3c(OC)cc(COC)cc3OC)c(C)oc12)C1CCOCC1` [Example 15, N-butyl-3-[2,6-dimethoxy-4-(methoxymethyl)phenyl]-6-ethyl-2-methyl-N-(tetrahydro-2H-pyran-4-yl)pyrazolo[5,1-b][1,3]oxazole-7-amine], which IC50 (human CRFR1) is on record?
Its IC50 is 98 nM.

Which IC50 (human CRFR1) does the source give for `COCc1cc(OC)c(-c2c(C)oc3c(N(CC4CCOCC4)CC4CC4)c(C)nn23)c(OC)c1` [Example 10, N-(cyclopropylmethyl)-3-[2,6-dimethoxy-4-(methoxymethyl)phenyl]-2,6-dimethyl-N-(tetrahydro-2H-pyran-4-ylmethyl)pyrazolo[5,1-b][1,3]oxazole-7-amine] here?
The IC50 was 71 nM.

And the “anxiolytic effect in the light/dark box test in mice” value (male Balb/c mice)?
Its value is “statistically significant effects”.

What about the “Effective Dose” value (male Balb/c mice) of the same compound?
Its value is 30 mg/kg.
